# Laboratory results from paper PMC11436758, “Computer-aided drug design to generate a unique antibiotic family” (Nature Communications, 2024).
# Several values for one entry are separate records, joined by “and”; a condition that tells them apart may be missing. Identical values can stand only once.
# How the values were obtained:
# AcpS^H-/108A = target: T1, AcpS^H-/108A (Escherichia coli, UniProt P24224, H108A); assay: Inhibition of purified AcpS site-directed mutant by DNM0547; assay type: biochemical, E. coli; details: for AcpS rate nM/min, Mean / AcpS rate: Suppl Fig 3, [AcpS_H108A] 5nM; for AcpS rate: replicates
# T1 construct: 6x-His (C); made in house
# T1 sequence (P24224 whole entry H108A): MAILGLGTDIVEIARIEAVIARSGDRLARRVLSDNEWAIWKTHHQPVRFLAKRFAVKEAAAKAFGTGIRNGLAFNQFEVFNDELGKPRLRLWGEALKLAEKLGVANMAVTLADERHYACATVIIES
# AcpS^F50/50A = AcpS^F50/50A (Escherichia coli, UniProt P24224, F49A); assay: as above; assay type: biochemical, E. coli
# Sequence of AcpS^F50/50A (P24224 2-126 F49A): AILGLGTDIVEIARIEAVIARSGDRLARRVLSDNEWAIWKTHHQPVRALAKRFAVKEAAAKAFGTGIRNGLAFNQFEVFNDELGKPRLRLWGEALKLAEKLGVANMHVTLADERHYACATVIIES
# Description: Using purified E. coli AcpS proteins, we determined the enzyme activity of wild-type and numerous AcpS mutants. Those analyzed by scanning alanine mutagenesis included (S. aureus amino acid residue followed by the corresponding E. coli residue) R46/48, F50/50, R54/53, K63/62, N82/81, and H-/108.
# Recombinant His-Tagged AcpS expression was induced by IPTG addition and overnight culture. Cell lysate was obtained by sequential aspiration through 16, 18 and 21 G needles in a buffer of 50 mM Tris-HCl (pH 8.5), 10 mM MgCl2, 2 mM DTT, 5% glycerol, and further adjusted to pH 8.1 with MES. […] In a typical AcpS enzyme activity assay, 57 µM [^3H]acetyl-CoA, 2 µg apo-ACP, 10 mM MgCl2, 5 mM DTT, 50 mM Na phosphate (pH 7.0), and AcpS in a final volume of 10 µL were incubated at room temperature in a 1.5 mL microcentrifuge tube. At 5, 10, 15, and 20 min 2 µL of reaction were added to 750 µl 10% TCA on ice. […] 2 mL of scintillation fluid was added, and the amount of [^3H]-labeled holo-ACP formed was quantified by liquid scintillation counting. […] Routinely, each data point was determined at least by triplicate. […]
# coli wild type and AcpS mutants determined using purified proteins. b, AcpS enzyme activity for each AcpS mutant was assayed at increasing concentration of DNM0547 (0-128 µM). IC50 was determined using GraphPad Prism. […]
# AcpS^N82/81A = target: T2, AcpS^N82/81A (Escherichia coli, UniProt P24224, N81A); assay: as above; assay type: biochemical, E. coli; details: for AcpS rate nM/min, Mean / AcpS rate: Suppl Fig 3, [AcpS_N81A] 5nM; for AcpS rate: replicates
# T2 construct: 6x-His (C); made in house
# T2 sequence (P24224 whole entry N81A): as the sequence (P24224 whole entry H108A) above, with N81A, A108H counted along it
# [1] = Histopathology (H&E) of treated rabbit ischemic ear wounds, dermal toxicity
# Description: Wounds were excised, fixed, and routine H&E staining was performed. Wounds were examined for pathology and scored in a blinded manner.
# Post-wounding, under anesthesia, animals were euthanized with an intravenous injection of Beuthanasia-D at a dosage of 150 mg/kg of body weight. Specimens including the entire wound, along with ~2–3 mm of the normal unwounded skin margins were harvested. Each ear wound specimen was sectioned into halves. For one half of the wound, the wound was placed into a container with 10% neutral buffered formalin and processed for routine histological evaluation. Wounds were scored on a scale of 0–4 at the wound site for erythema, edema, inflammation, granulation, angiogenesis, and epithelialization. Wounds were characterized in a blinded manner by a board-certified member of the College of American Pathologists.
# wild type (K12) E. coli = assay: MIC, wild type E. coli; assay type: cell-based; details: Escherichia coli
# Text: The outer membrane of Gram-negative bacteria is a robust permeability barrier that prevents many antibiotics from entering Gram-negative cells[46],[47]. The outer leaflet of this outer membrane is primarily composed of the unique lipid lipopolysaccharide (LPS). Strains of E. coli with point mutations in genes coding for LPS biosynthetic enzymes have been isolated that enable some antibiotics to effectively pass through the outer membrane enabling activity against these strains of E. coli[48]–[54]; one such strain is E. coli (D22) which contains a point mutation in the lpxC gene.
# The medium employed for the assay was Mueller Hinton II Broth (MHB II; Becton-Dickinson, Sparks, MD, USA). Agar plates used for the organisms were trypticase soy agar plus 5% sheep blood (BD; Sparks, MD, USA). MIC assay plates were prepared using the CLSI broth microdilution procedure. Automated liquid handlers (Multidrop 384, Biomek 2000 and Biomek FX) were used to conduct serial dilutions and liquid transfers. A standardized inoculum of each organism was prepared per CLSI methods. Suspensions were prepared to equal a 0.5 McFarland standard, followed by a 1:20 dilution in test media. […] The microplates were viewed from the bottom using a plate viewer and the MIC was read. The MIC was recorded as the lowest concentration of drug that inhibited visible growth of the organism. […]
compound,measurement,setting,value
CC(C)c1cc(Cl)ccc1-c1cc(-c2nnn[nH]2)c(-c2ccc(Cl)cc2C(C)C)s1 [DNM0547],IC50,AcpS^H-/108A,5.6 µM
same,"AcpS rate nM/min, Mean",AcpS^H-/108A; Drug Conc 1 uM,7.81 nM/min
same,AcpS rate,AcpS^H-/108A; Drug Conc 1 uM,7.96 nM/min and 7.81 nM/min and 7.64 nM/min
same,"AcpS rate nM/min, Mean",AcpS^H-/108A; Drug Conc 2 uM,6.86 nM/min
same,AcpS rate,AcpS^H-/108A; Drug Conc 2 uM,6.91 nM/min and 7.01 nM/min and 6.66 nM/min
same,"AcpS rate nM/min, Mean",AcpS^H-/108A; Drug Conc 4 uM,4.72 nM/min
same,AcpS rate,AcpS^H-/108A; Drug Conc 4 uM,4.74 nM/min and 4.76 nM/min and 4.66 nM/min
same,"AcpS rate nM/min, Mean",AcpS^H-/108A; Drug Conc 8 uM,3.23 nM/min
same,AcpS rate,AcpS^H-/108A; Drug Conc 8 uM,2.93 nM/min and 3.30 nM/min and 3.44 nM/min
same,"AcpS rate nM/min, Mean",AcpS^H-/108A; Drug Conc 16 uM,2.83 nM/min
same,AcpS rate,AcpS^H-/108A; Drug Conc 16 uM,3.20 nM/min and 2.39 nM/min and 2.90 nM/min
same,"AcpS rate nM/min, Mean",AcpS^H-/108A; Drug Conc 32 uM,1.69 nM/min
same,AcpS rate,AcpS^H-/108A; Drug Conc 32 uM,1.65 nM/min and 1.74 nM/min and 1.68 nM/min
same,"AcpS rate nM/min, Mean",AcpS^H-/108A; Drug Conc 64 uM,1.60 nM/min
same,AcpS rate,AcpS^H-/108A; Drug Conc 64 uM,1.52 nM/min and 1.63 nM/min and 1.65 nM/min
same,"AcpS rate nM/min, Mean",AcpS^H-/108A; Drug Conc 128 uM,1.34 nM/min
same,AcpS rate,AcpS^H-/108A; Drug Conc 128 uM,1.38 nM/min and 1.44 nM/min and 1.20 nM/min
same,remaining activity at 1 µM,"AcpS^H-/108A; read-out: % of untreated, Suppl Fig 3, [AcpS_H108A] 5nM, Drug Conc 1 uM, replicates",105%
same,remaining activity at 2 µM,"AcpS^H-/108A; read-out: % of untreated, Suppl Fig 3, [AcpS_H108A] 5nM, Drug Conc 2 uM, replicates",90.9%
same,remaining activity at 4 µM,"AcpS^H-/108A; read-out: % of untreated, Suppl Fig 3, [AcpS_H108A] 5nM, Drug Conc 4 uM, replicates",62.4%
same,remaining activity at 8 µM,"AcpS^H-/108A; read-out: % of untreated, Suppl Fig 3, [AcpS_H108A] 5nM, Drug Conc 8 uM, replicates",38.5%
same,remaining activity at 16 µM,"AcpS^H-/108A; read-out: % of untreated, Suppl Fig 3, [AcpS_H108A] 5nM, Drug Conc 16 uM, replicates",42.1%
same,remaining activity at 32 µM,"AcpS^H-/108A; read-out: % of untreated, Suppl Fig 3, [AcpS_H108A] 5nM, Drug Conc 32 uM, replicates",21.7%
same,remaining activity at 64 µM,"AcpS^H-/108A; read-out: % of untreated, Suppl Fig 3, [AcpS_H108A] 5nM, Drug Conc 64 uM, replicates",20%
same,remaining activity at 128 µM,"AcpS^H-/108A; read-out: % of untreated, Suppl Fig 3, [AcpS_H108A] 5nM, Drug Conc 128 uM, replicates",18.1%
same,IC50,AcpS^F50/50A,16.2 µM
same,IC50,AcpS^N82/81A,5 µM
same,"AcpS rate nM/min, Mean",AcpS^N82/81A; Drug Conc 1 uM,7.81 nM/min
same,AcpS rate,AcpS^N82/81A; Drug Conc 1 uM,7.96 nM/min and 7.81 nM/min and 7.64 nM/min
same,"AcpS rate nM/min, Mean",AcpS^N82/81A; Drug Conc 2 uM,6.86 nM/min
same,AcpS rate,AcpS^N82/81A; Drug Conc 2 uM,6.91 nM/min and 7.01 nM/min and 6.66 nM/min
same,"AcpS rate nM/min, Mean",AcpS^N82/81A; Drug Conc 4 uM,4.72 nM/min
same,AcpS rate,AcpS^N82/81A; Drug Conc 4 uM,4.74 nM/min and 4.76 nM/min and 4.66 nM/min
same,"AcpS rate nM/min, Mean",AcpS^N82/81A; Drug Conc 8 uM,3.23 nM/min
same,AcpS rate,AcpS^N82/81A; Drug Conc 8 uM,2.93 nM/min and 3.30 nM/min and 3.44 nM/min
same,"AcpS rate nM/min, Mean",AcpS^N82/81A; Drug Conc 16 uM,2.83 nM/min
same,AcpS rate,AcpS^N82/81A; Drug Conc 16 uM,3.20 nM/min and 2.39 nM/min and 2.90 nM/min
same,"AcpS rate nM/min, Mean",AcpS^N82/81A; Drug Conc 32 uM,1.69 nM/min
same,AcpS rate,AcpS^N82/81A; Drug Conc 32 uM,1.65 nM/min and 1.74 nM/min and 1.68 nM/min
same,"AcpS rate nM/min, Mean",AcpS^N82/81A; Drug Conc 64 uM,1.60 nM/min
same,AcpS rate,AcpS^N82/81A; Drug Conc 64 uM,1.52 nM/min and 1.63 nM/min and 1.65 nM/min
same,"AcpS rate nM/min, Mean",AcpS^N82/81A; Drug Conc 128 uM,1.34 nM/min
same,AcpS rate,AcpS^N82/81A; Drug Conc 128 uM,1.38 nM/min and 1.44 nM/min and 1.20 nM/min
same,remaining activity at 1 µM,"AcpS^N82/81A; read-out: % of untreated, Suppl Fig 3, [AcpS_N81A] 5nM, Drug Conc 1 uM, replicates",105%
same,remaining activity at 2 µM,"AcpS^N82/81A; read-out: % of untreated, Suppl Fig 3, [AcpS_N81A] 5nM, Drug Conc 2 uM, replicates",90.9%
same,remaining activity at 4 µM,"AcpS^N82/81A; read-out: % of untreated, Suppl Fig 3, [AcpS_N81A] 5nM, Drug Conc 4 uM, replicates",62.4%
same,remaining activity at 8 µM,"AcpS^N82/81A; read-out: % of untreated, Suppl Fig 3, [AcpS_N81A] 5nM, Drug Conc 8 uM, replicates",38.5%
same,remaining activity at 16 µM,"AcpS^N82/81A; read-out: % of untreated, Suppl Fig 3, [AcpS_N81A] 5nM, Drug Conc 16 uM, replicates",42.1%
same,remaining activity at 32 µM,"AcpS^N82/81A; read-out: % of untreated, Suppl Fig 3, [AcpS_N81A] 5nM, Drug Conc 32 uM, replicates",21.7%
same,remaining activity at 64 µM,"AcpS^N82/81A; read-out: % of untreated, Suppl Fig 3, [AcpS_N81A] 5nM, Drug Conc 64 uM, replicates",20%
same,remaining activity at 128 µM,"AcpS^N82/81A; read-out: % of untreated, Suppl Fig 3, [AcpS_N81A] 5nM, Drug Conc 128 uM, replicates",18.1%
same,"toxicity to dermal cells, histopathology","[1]; 2% cream, 18 days of exposure of the rabbit ear wound",no indication of toxicity
same,"erythema, edema, angiogenesis and epithelization scores","[1]; 2% cream, 18 days, compared to 2% mupirocin or cream control",improved
same,Angiogenesis,"[1]; Suppl Fig 7, score per wound",1 and 2
same,Edema,"[1]; Suppl Fig 7, score per wound",1 and 2
same,Erythema,"[1]; Suppl Fig 7, score per wound",1 and 2
same,Granulation,"[1]; Suppl Fig 7, score per wound",2 and 1
same,Inflammation,"[1]; Suppl Fig 7, score per wound",2 and 3 and 4
same,MIC,wild type (K12) E. coli,256 µg/mL
